Test results from ChEMBL document CHEMBL1201862, “PubChem BioAssay data set” (2004).
Activity calls are given as the source filed them.

Assays:
[1] = molecular target: T1, Intestinal-type alkaline phosphatase (Homo sapiens, UniProt P09923); experiment: human intestinal alkaline phosphatase activators, dose response, biochemical, luminescence, uHTS hits (AID 463120); type: functional
Protein RecA = molecular target: T2, Protein RecA (Mycobacterium tuberculosis, UniProt P9WHJ3); experiment: Fluorescence Cell-Free Homogeneous Dose Retest to Identify Inhibitors of RecA-Intein Splicing Activity. [Related pubchem assays (depositor defined):AID2097, AID2223, AID489010, AID492950]; type: functional
T2 sequence (P9WHJ3 whole entry): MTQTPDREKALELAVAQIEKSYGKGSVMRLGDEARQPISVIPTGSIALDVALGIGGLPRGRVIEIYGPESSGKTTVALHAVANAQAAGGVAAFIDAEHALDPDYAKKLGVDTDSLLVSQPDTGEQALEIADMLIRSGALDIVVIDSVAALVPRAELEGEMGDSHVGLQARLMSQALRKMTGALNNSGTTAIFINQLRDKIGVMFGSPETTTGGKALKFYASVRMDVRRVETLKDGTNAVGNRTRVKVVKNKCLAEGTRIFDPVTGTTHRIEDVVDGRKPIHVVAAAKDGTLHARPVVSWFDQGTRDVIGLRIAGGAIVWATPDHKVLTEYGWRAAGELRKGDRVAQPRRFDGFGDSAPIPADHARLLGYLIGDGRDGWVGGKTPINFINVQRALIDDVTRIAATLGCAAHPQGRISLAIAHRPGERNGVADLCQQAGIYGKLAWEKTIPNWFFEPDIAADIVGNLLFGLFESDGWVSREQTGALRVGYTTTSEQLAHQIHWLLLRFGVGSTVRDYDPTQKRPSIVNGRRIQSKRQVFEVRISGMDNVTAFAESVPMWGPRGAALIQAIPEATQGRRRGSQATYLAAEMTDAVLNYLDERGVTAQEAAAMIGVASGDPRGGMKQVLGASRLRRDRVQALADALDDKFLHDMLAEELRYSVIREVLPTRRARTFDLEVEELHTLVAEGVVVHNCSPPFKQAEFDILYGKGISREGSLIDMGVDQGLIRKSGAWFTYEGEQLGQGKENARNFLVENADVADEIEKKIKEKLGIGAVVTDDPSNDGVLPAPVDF

[2] = molecular target: T3, Replicative DNA helicase DnaB (Mycobacterium tuberculosis, UniProt P9WMR3); experiment: DnaB intein splicing inhibitors, dose response, biochemical, cell-free fluorescence (AID 449749); type: functional
T3 sequence (P9WMR3 whole entry): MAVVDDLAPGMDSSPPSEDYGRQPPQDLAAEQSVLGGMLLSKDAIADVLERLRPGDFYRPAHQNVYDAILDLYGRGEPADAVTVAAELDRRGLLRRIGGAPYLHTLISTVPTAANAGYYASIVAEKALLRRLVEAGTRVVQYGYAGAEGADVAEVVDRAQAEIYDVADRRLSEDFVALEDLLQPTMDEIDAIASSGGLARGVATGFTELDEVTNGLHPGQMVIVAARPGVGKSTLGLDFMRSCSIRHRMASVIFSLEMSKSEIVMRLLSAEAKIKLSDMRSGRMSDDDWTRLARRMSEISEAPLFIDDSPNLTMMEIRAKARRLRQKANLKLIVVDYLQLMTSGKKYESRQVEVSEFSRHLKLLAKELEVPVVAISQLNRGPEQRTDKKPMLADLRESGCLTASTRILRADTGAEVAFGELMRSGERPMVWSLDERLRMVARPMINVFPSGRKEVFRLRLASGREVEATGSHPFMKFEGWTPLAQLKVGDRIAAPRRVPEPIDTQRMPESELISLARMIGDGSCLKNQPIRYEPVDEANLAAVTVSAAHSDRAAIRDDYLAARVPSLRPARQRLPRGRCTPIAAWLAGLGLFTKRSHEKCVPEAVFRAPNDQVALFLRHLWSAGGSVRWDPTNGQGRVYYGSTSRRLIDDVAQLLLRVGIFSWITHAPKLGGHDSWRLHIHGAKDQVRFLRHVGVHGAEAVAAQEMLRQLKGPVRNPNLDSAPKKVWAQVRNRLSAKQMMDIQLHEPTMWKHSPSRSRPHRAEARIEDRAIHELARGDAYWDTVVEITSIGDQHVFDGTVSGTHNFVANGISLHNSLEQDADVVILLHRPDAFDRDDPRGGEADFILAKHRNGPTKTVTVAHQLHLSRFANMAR

[3] = molecular target: T1, Intestinal-type alkaline phosphatase; experiment: human IAP activators, dose response, biochemical, luminescent, uHTS hits, set 2 (AID 488817); type: functional;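 also: potency of activators that raise enzyme activity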
[4] = Luminescence Cell-Based Dose Retest to Confirm Inhibitors of Cancer Stem Cells. [Related pubchem assays (depositor defined):AID2717, AID2721]; type: functional; conditions: Homo sapiens
[5] = molecular target: T4, Alkaline phosphatase, tissue-nonspecific isozyme (Homo sapiens, UniProt P05186); experiment: TNAP enzyme activators, dose response, selectivity assay for human IAP activator project, biochemical, TNAP isozyme, human IAP uHTS hits (AID 488886); type: functional;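 also: potency of compounds raising TNAP activity as a selectivity check on IAP activators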
T4 sequence (P05186 whole entry): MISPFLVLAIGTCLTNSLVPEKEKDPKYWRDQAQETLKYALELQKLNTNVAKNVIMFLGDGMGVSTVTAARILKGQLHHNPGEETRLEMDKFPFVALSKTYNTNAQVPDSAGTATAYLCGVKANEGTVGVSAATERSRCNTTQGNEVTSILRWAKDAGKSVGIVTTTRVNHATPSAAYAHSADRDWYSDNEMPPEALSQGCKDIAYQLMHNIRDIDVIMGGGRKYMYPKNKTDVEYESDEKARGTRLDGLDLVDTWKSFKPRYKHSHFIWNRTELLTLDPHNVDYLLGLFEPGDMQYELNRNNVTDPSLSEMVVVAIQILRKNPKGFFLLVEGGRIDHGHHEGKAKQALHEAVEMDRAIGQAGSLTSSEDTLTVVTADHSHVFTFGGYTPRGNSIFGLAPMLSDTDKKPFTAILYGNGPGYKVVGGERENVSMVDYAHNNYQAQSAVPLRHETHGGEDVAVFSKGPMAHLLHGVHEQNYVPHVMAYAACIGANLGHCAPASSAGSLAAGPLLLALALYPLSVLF

[6] = molecular target: T5, High affinity choline transporter 1 (Homo sapiens, UniProt Q9GZV3); experiment: CHT inhibitors, dose response, cell-based, 5-point CRC, membrane potential dye (AID 504840); type: functional
T5 sequence (Q9GZV3 whole entry): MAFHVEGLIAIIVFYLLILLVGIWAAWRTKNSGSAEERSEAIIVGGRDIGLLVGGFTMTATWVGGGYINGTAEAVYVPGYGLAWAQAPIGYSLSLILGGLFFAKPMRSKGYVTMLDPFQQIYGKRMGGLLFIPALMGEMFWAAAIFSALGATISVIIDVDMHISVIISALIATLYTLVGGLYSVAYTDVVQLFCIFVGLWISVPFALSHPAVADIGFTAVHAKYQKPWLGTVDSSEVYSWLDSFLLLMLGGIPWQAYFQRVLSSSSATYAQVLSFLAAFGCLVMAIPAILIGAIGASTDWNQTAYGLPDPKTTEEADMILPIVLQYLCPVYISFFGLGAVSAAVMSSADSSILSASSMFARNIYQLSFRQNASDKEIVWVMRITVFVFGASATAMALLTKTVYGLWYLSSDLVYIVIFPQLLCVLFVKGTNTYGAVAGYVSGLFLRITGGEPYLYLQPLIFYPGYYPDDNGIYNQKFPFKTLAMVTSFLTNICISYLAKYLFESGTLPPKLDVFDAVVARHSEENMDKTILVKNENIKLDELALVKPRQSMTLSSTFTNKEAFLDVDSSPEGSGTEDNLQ

[7] = molecular target: Intestinal-type alkaline phosphatase (Mus musculus, UniProt P24822); experiment: PubChem AID 488875; type: functional
Chain of Intestinal-type alkaline phosphatase (Mus musculus, UniProt P24822) (P24822 whole entry): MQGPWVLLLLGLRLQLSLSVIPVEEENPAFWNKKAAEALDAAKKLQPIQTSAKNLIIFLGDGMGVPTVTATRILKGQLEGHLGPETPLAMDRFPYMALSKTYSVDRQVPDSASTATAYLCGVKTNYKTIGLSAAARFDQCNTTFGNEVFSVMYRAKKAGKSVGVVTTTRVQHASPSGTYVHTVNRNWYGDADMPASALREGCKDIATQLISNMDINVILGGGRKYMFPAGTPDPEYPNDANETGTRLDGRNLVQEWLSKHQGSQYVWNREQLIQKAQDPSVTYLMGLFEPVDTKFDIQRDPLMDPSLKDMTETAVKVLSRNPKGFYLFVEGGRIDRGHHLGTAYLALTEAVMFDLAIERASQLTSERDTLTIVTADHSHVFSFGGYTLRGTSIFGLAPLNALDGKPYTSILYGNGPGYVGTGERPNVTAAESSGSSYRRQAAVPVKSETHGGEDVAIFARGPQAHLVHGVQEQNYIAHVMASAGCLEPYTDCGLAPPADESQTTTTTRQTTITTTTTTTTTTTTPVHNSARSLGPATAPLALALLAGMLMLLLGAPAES

[8] = Intein inhibitors as potential Tuberculosis drugs, a cytotoxicity screen. [Related pubchem assays (depositor defined):AID2221, AID2223, AID434968, AID435010, AID449749, AID449750, AID489010]; type: functional
[9] = cytotoxicity in HEK-293T cells, dose response, cytotoxicity control for TCR NF-kB inhibitor project, luminescence, T-cell screen hits (AID 489026); type: functional, cell-based;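 also: cells exposed to compound about 14 hours before the viability readout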
[10] = molecular target: Peroxisome proliferator-activated receptor gamma/Nuclear receptor corepressor 2 (Homo sapiens, UniProt P37231+Q9Y618); type: functional
[11] = molecular target: T6, Dual specificity protein phosphatase 6 (Rattus norvegicus, UniProt Q64346); experiment: MKP-3 phosphatase inhibitors, primary screen, biochemical, rat enzyme, in vitro (AID 425)
T6 sequence (Q64346 whole entry): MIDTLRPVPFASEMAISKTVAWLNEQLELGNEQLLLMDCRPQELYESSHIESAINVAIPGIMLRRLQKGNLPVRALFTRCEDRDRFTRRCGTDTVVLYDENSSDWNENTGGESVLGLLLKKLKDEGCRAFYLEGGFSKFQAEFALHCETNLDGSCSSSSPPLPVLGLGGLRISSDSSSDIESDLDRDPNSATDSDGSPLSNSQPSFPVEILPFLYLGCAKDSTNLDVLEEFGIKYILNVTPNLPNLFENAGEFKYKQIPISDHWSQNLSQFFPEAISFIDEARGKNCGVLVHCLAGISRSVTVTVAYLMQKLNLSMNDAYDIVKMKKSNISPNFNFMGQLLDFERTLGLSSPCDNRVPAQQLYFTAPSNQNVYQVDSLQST

INS1 = experiment: beta cell apoptosis inhibitors, cytokine rescue, dose response, luminescence, retest (AID 449756); type: functional, cell-based; conditions: Rattus norvegicus;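 also: cell death triggered by IL-1 beta plus TNF-alpha plus IFN-gamma mixture; protective hits raise ATP signal compared with cytokine alone wells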
[12] = cytotoxicity toward NIH3T3 fibroblasts, dose response, counter-screen, cell-based, ATP luminescence, mouse fibroblasts (AID 2010); type: functional;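 also: cells exposed to compound for about 90 hours before reading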
[13] = cytotoxicity in HPDE-C7 cells, cell-based, fluorescence, HTS (AID 430); type: functional; conditions: Homo sapiens
[14] = molecular target: T7, Dual specificity protein phosphatase 3 (Homo sapiens, UniProt P51452); experiment: VHR1 phosphatase inhibitors, primary screen, biochemical, absorbance, uHTS (AID 1654)
T7 sequence (P51452 whole entry): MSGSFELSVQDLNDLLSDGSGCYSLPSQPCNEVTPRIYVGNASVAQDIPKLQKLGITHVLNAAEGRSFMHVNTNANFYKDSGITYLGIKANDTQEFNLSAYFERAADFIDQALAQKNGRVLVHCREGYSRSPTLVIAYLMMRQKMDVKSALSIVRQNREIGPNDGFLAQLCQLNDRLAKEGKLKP

[15] = molecular target: Lysine-specific demethylase 4A (Homo sapiens, UniProt O75164); experiment: JMJD2A histone demethylase inhibitors, dose response, selectivity assay for GASC-1 inhibitor project, biochemical, DELFIA europium, cherry-picked samples (AID 488840)
Chain of Lysine-specific demethylase 4A (O75164 whole entry): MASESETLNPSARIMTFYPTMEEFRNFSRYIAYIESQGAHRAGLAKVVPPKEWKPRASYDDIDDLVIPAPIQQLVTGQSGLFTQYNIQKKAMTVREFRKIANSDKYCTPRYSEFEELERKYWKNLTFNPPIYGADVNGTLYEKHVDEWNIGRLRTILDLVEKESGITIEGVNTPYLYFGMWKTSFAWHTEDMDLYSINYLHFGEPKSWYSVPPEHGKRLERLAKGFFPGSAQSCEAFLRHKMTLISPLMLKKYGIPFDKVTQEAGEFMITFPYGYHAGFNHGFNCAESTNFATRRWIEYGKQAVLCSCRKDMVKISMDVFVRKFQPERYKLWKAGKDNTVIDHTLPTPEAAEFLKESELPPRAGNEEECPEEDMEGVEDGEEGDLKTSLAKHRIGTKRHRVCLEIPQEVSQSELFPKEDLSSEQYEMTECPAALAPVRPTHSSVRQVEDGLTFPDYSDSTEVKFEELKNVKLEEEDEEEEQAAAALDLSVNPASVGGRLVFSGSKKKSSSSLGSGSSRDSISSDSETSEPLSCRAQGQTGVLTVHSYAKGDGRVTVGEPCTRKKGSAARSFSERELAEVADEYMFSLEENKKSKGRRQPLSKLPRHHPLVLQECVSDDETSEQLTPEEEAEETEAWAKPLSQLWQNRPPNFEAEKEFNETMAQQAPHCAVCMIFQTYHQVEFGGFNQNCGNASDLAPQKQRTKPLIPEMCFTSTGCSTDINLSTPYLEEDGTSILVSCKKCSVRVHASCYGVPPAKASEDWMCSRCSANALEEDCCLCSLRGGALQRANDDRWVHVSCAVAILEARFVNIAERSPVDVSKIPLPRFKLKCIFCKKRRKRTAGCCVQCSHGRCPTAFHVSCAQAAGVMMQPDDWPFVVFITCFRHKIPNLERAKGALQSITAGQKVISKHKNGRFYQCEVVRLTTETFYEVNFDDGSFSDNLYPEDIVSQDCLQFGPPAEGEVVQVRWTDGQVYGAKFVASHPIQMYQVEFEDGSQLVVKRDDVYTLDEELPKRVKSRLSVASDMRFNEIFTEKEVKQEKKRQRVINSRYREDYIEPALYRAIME

[16] = molecular target: Ras and Rab interactor 1/Tyrosine-protein kinase ABL1 (Homo sapiens, UniProt P00519+Q13671); type: functional;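 also: biochemical TR-FRET dose-response test measuring inhibition of binding between Rin1 and Abl proteins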
[17] = microbe, parasite or virus in culture; type: functional; conditions: Mycobacterium tuberculosis
[18] = molecular target: Photoreceptor-specific nuclear receptor (Homo sapiens, UniProt Q9Y5X4); type: functional;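 also: potency for compounds that break the NR2E3 corepressor complex and count as activators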
Chain of Photoreceptor-specific nuclear receptor (Q9Y5X4 whole entry): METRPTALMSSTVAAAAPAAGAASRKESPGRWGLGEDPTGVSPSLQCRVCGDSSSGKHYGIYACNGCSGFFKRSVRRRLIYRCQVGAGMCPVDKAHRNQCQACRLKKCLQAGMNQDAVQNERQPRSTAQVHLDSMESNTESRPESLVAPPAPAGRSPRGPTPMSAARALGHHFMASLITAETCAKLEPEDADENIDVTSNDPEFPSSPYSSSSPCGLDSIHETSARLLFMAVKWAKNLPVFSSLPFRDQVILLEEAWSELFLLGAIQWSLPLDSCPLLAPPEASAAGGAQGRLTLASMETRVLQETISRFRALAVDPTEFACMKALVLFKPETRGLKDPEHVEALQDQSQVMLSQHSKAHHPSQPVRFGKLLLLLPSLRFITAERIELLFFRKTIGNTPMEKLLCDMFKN

[19] = MDA-MB-231 cell growth inhibition, dose response, cytotoxicity control for RAD54 inhibitor project, CellTiter-Glo luminescence, cherry-pick (AID 651692); type: functional, cell-based
[20] = molecular target: T7, Dual specificity protein phosphatase 3; experiment: VHR1 phosphatase inhibitors, biochemical (AID 1878)
[21] = cytotoxicity in KRAS-transformed pancreatic duct cells, primary screen, cell-based, fluorescence, HTS (AID 431); type: functional; conditions: Homo sapiens;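 also: cell line used: HPDE-C7K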
[22] = molecular target: Lysine-specific demethylase 4C (Homo sapiens, UniProt Q9H3R0); experiment: GASC-1 (JMJD2C) histone demethylase inhibitors, dose response, biochemical, DELFIA europium, cherry-picked samples (AID 488835); type: functional
Chain of Lysine-specific demethylase 4C (Q9H3R0 whole entry): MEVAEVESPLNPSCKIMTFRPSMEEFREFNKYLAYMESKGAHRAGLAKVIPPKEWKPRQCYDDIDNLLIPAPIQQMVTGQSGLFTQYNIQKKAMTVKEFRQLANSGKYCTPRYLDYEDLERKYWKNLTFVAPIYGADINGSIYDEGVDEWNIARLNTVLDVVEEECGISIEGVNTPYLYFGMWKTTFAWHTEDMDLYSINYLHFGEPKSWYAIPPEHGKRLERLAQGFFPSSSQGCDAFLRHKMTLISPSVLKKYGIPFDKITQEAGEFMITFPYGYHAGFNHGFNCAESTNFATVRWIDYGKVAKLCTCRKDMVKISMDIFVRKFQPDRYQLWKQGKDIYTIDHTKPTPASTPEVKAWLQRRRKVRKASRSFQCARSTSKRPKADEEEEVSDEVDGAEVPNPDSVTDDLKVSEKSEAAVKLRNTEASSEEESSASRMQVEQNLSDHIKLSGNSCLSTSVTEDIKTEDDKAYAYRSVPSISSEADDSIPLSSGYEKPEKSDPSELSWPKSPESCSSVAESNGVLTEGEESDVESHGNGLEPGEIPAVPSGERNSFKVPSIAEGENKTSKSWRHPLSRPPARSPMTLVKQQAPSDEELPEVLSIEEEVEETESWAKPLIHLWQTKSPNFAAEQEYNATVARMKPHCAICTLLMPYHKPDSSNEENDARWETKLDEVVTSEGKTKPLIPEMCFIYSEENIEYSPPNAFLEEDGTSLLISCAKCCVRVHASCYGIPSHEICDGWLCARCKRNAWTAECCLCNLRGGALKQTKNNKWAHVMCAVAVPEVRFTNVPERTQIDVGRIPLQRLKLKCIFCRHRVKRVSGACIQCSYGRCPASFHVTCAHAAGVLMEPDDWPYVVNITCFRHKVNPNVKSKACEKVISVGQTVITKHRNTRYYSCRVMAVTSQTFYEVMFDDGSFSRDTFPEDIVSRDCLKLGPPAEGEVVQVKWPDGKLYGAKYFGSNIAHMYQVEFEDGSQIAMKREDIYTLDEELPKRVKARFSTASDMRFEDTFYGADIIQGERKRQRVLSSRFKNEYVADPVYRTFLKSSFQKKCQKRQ

[23] = molecular target: DNA repair and recombination protein RAD54-like (Homo sapiens, UniProt Q92698); experiment: inhibitors of human RAD54 branch migration, confirmation, biochemical, fluorescence, cherry-picked samples, dose series (AID 651657); type: functional
Chain of DNA repair and recombination protein RAD54-like (Q92698 whole entry): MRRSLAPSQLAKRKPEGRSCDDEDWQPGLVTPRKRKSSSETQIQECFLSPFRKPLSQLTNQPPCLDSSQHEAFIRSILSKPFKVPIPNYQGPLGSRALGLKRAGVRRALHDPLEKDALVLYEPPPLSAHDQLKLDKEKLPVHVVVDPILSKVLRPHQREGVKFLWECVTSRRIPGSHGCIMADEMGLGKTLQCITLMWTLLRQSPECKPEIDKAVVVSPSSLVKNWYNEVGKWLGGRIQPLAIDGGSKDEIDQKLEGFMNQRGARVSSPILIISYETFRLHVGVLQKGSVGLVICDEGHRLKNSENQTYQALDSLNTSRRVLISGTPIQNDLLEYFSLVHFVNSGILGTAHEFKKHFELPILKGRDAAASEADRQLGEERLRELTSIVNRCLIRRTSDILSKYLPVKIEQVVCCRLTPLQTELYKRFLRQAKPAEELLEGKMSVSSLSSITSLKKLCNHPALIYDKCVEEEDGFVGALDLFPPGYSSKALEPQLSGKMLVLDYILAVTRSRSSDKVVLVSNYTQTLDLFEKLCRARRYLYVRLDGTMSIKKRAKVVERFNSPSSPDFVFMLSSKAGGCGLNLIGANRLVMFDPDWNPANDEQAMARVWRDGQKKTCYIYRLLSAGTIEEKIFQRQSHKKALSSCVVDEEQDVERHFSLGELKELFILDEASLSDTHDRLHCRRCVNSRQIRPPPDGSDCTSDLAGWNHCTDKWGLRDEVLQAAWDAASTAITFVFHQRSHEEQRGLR

[24] = inhibitors of intracellular T. cruzi replication, confirmation, NIH3T3 host cells, beta-gal luminescence (AID 2044); type: functional, cell-based;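 also: intracellular parasites grown in NIH/3T3 mouse fibroblasts as host cells; luminescent beta-galactosidase reporter signal from transgenic T. cruzi replicating inside host cells; inhibitors lower the luminescence signal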
[25] = inhibitors of PGC1a acetylation in cells, dose response, cell-based, cherry-picked samples (AID 720514); type: functional;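 also: potency may reflect raised or lowered acetylation signal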
[26] = molecular target: T8, Tyrosine-protein phosphatase non-receptor type 7 (Homo sapiens, UniProt P35236); type: functional
T8 sequence (P35236 whole entry): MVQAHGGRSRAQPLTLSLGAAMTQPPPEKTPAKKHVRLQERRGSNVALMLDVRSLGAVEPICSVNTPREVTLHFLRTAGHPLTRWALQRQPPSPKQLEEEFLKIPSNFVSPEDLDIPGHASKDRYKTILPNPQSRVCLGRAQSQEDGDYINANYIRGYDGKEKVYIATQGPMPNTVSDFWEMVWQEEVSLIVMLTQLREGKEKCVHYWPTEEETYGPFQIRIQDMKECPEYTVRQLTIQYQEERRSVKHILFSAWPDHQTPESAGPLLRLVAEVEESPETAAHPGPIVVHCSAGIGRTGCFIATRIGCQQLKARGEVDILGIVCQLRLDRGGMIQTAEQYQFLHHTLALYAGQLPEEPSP

T1 sequence (P09923 whole entry): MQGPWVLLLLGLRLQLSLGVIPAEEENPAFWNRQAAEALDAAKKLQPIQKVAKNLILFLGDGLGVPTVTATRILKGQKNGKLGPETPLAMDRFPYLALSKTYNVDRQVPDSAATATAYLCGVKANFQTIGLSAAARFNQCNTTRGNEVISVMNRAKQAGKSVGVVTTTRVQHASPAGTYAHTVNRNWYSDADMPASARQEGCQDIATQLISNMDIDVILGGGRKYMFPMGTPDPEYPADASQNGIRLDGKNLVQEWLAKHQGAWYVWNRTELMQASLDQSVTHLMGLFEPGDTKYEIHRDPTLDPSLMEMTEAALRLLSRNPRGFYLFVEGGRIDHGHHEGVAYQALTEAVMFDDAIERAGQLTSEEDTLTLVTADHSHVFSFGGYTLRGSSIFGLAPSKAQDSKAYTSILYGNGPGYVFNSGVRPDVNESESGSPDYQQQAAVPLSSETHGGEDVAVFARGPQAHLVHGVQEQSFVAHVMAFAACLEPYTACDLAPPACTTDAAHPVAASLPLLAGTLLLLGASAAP

Cc1cc(C)cc(CC(Cc2nc3ccccc3[nH]2)c2nc3ccccc3[nH]2)c1 (centres undefined)
EC50 [1]: 65700 nM (active) | EC50 (Protein RecA): 83000 nM (active) | AC50 [2]: 8310 nM (active) | EC50 [3]: 55600 nM (active) | AC50 [4]: 6690 nM (active) | EC50 [5]: 69700 nM (active) | IC50 [6]: 15800 nM (active) | EC50 [7]: 26600 nM (active)

Cn1ncnc2c(=O)n(C)c(=O)nc1-2
CC50 [8]: 10300 nM (active) | IC50 [9]: 2000 nM (active) | IC50 [10]: > 39800 nM (not active) | IC50 [11]: 2320 nM (active) | AC50 (INS1): 627 nM (active) | EC50 [12]: 850 nM (active) | EC50 [13]: 470 nM (active) | AC50 [2]: 57 nM (active) | IC50 [14]: < 980 nM (inactive) | AC50 [15]: 2540 nM (active) | IC50 [16]: 323 nM (active) | CC50 [17]: 7980 nM (active) | IC50 [18]: > 39800 nM (not active) | AC50 [19]: 1800 nM (active) | IC50 [20]: 1360 nM (active) | EC50 [21]: 640 nM (active) | AC50 [22]: 541 nM (active) | AC50 [23]: 1100 nM (active) | EC50 [24]: 492 nM (active) | AC50 [25]: 463 nM (active) | IC50 [26]: < 1240 nM (active)
